From patent US20050282745A1, “Non-mammalian GnRH analogs and uses thereof in regulation of fertility and pregnancy” (priority 2001, published 2005)
Blank lines part the entries; values can stand above or below the compound they belong to. Non-standard residues stand in square brackets, D forms with d. Residues, ends and D or L forms follow the SMILES beside them. *: point of attachment. dPhe(4-Cl) = N[C@H](Cc1ccc(Cl)cc1)C(=O)O; d2Nal = N[C@H](Cc1ccc2ccccc2c1)C(=O)O; Lys(iPr) = CC(C)NCCCC[C@H](N)C(=O)O; d3Pal = N[C@H](Cc1cccnc1)C(=O)O; pGlu = O=C1CC[C@@H](C(=O)O)N1; Nicotinoyl = O=C(c1cccnc1)*

What was measured:
[1] = system: chorionic peptidase-1 (C-ase-1); assay: C-ase-1 enzyme activity assay, competition for degradation of GnRH; settings: for relative potency of inhibition of C-ase-1 degradation of GnRH, compared to GnRH: Example V; for Ki: competition for degradation of mammalian GnRH
Experimental: (§1) Using the incubation system developed for the C-ase-1 activity, the degradation of each analog was tested. […] These studies were done using the C-ase-1 enzyme activity assay as described previously. […] The product formed was calculated by subtraction, and its inverse plotted against the inverse of the original substrate concentrations to determine the nature of the competition. The Ki was to be determined by plotting the inverse of the product that formed verses the inhibitor used.
(§2) The concentration of the product of the degraded GnRH was quantified by subtracting the remaining mammalian GnRH from the starting concentrations of mammalian GnRH. […] The Ks for the degradation of mammalian GnRH was calculated from the x axis intercept using Lineweaver-Burke double reciprocal plot of the concentration of the product formed versus the concentration of the substrate used.
(§3) The reaction was stopped by heating at 85° C. for 10 minutes. The remaining GnRH was determined using a specific radioimmunoassay. The formation of product, i.e., the N-terminal nonapeptide of GnRH, was calculated by subtraction and its inverse was plotted versus the inverse of the initial substrate to determine the Ks of the reaction. […] The relative potency of each analog was compared.
(§4) Using the incubation system developed for the C-ase-1 activity, the degradation of each analog was studied. […] The inverse of the product was plotted against the inverse of the original substrate concentrations to determine Ks of the competition. The Ki was determined by plotting the inverse of the product formed verses the inhibitor used.

[2] = system: chorionic peptidase-1 (C-ase-1)
Experimental: as §1, §2, §3, §4

[3] = system: human placental GnRH receptor; assay: Placental GnRH receptor binding, 125I-Buserelin label; settings: for receptor activity/potency compared with GnRH: 125I-Buserelin, Example VI
Experimental: The newly synthesized non-mammalian GnRH analogs and other commercially available mammalian GnRH analogs were used in placental receptors binding and enzyme stability study described here. […] GnRH receptors were purified from the membrane fractions from placentas. The purification procedure for the placental GnRH receptor was performed using a modification of the method described by Bramley et al., which reference is specifically incorporated herein by reference for the purpose. Addition of enzyme inhibitors for the endogenous C-ase-1 were used as well as agents for receptor stabilization. Initially, receptor-binding assays using ^125I-Buserelin as label were performed. The competitive binding of each of the analogs was studied over a dose range of 10^−11 to 10^−6 M. Incubation was at room temperature and receptor bound label was precipitated with polyethylene glycol. Specific and non-specific binding was determined. The data was subjected to Scatchard analysis. The non-mammalian GnRH analogs' ability to bind to the placental GnRH receptor was compared to that for synthetic mammalian GnRH (SEQ ID NO: 5), Buserelin (SEQ ID NO: 10) and other mammalian analogs. […] This way, the receptor affinity for that analog could be precisely determined. Receptors from three different term placentas were used to study each of these analogs. […] Bramley T A, McPhie C A, Menzies G S 1994 Human placental gonadotropin-releasing hormone (GnRH) binding sites: 111. […] Placenta 15:733-745.
In these and additional studies, placental GnRH receptors were purified from human term placentas after homogenization in 40 mM Tris (pH 7.4) and filtered through cheesecloth, followed by an initial centrifugation at 1,000×g for 10 minutes. The resulting supernatant was, again, centrifuged at 35,000×g for 30 minutes and the membrane pellet was collected and resuspended in Tris buffer with 0.3 M sucrose. The protein concentration was determined. Membranes were stored frozen at −20 C until use. Before use, placental membranes were diluted to 5,000 μg/mL with Tris buffer containing 0.5% BSA and 50 U/mL bacitracin. […] Following incubation at room temperature for 4 hours, the bound and free hormones were separated using polyethylene glycol precipitation, followed by centrifugation. The binding affinity for each GnRH isoform or analog was calculated using the double reciprocal plot of bound versus free ligand. Each study was done using three different human term placental tissues.
Receptor assays were performed by incubating human term placental GnRH receptors with varying concentrations of GnRH or its analogs in the presence of ^125I-Buserelin. The reaction was stopped and the bound hormone precipitated with polyethylene glycol.

[4] = system: pregnant baboons; assay: Pregnant baboons, mini-pump days 14-21 post ovulation; type: in vivo, baboon
Experimental: Mammalian GnRH analogs, ZOLADEX™ (Goserelin acetate) and Organon 30276, were administered to pregnant baboons via mini-pump on days 14 through 21 post ovulation. The hormonal release and pregnancy outcome was compared to saline treated controls. […] In a dose-response saline-controlled study using very high doses of mammalian GnRH analog, a small stimulation of hCG in very early pregnancy was observed by the present inventor.

[5] = system: placental homogenate; assay: Degradation in whole placental homogenate; type: in vitro ADME, human
Experimental: Studies using whole placental homogenate were also performed. […] The competition by the newly synthesized non-mammalian GnRH analogs as compared to mammalian GnRH (SEQ ID NO: 5) was then studied to confirm the C-ase-1 studies above. […] (FIG. 3)
The stability of these analogs in the present of whole placental homogenates was examined. The ethylamide derivative has a slowed degradation rate as compared to GnRH, but can be degraded.

Compound: chicken II GnRH-^10 aza-Gly-amide
degradation by / competition for C-ase-1, in words [2]: resistant to degradation

Compound: CC(C)C[C@H](NC(=O)[C@@H](COC(C)(C)C)NC(=O)[C@H](Cc1ccc(O)cc1)NC(=O)[C@H](CO)NC(=O)[C@H](Cc1c[nH]c2ccccc12)NC(=O)[C@H](Cc1cnc[nH]1)NC(=O)[C@@H]1CCC(=O)N1)C(=O)N[C@@H](CCCNC(=N)N)C(=O)N1CCC[C@H]1C(=O)NNC(N)=O [ZOLADEX, Goserelin acetate]
abortions ([4]; in vivo): not consistently effected | pregnancy outcome ([4]; in vivo): in most animals pregnancy outcomes were jeopardized | CG and progesterone ([4]; vs saline controls): decreased

Compound: NC(=O)CNC(=O)[C@@H]1CCCN1C(=O)[C@H](Cc1ccc(O)cc1)NC(=O)[C@H](Cc1c[nH]c2ccccc12)NC(=O)CNC(=O)[C@H](Cc1c[nH]cn1)NC(=O)[C@H](CO)NC(=O)[C@H](Cc1c[nH]c2ccccc12)NC(=O)[C@H](Cc1c[nH]cn1)NC(=O)[C@@H]1CCC(=O)N1 [chicken II GnRH] ([pGlu]HWSHGWYPG-NH2; C-terminus assumed)
receptor binding potency compared with chicken II GnRH isoform or Buserelin ([3]; Buserelin label, Example II): equipotent to Buserelin | receptor binding potency compared with mammalian GnRH ([3]; Buserelin label, Example II): three-fold more potent | stability in whole placental homogenates [5]: more stable than the mammalian GnRH analogs | degradation/competition relative to mammalian GnRH ([1]; Example III): one-sixth | relative potency of inhibition of C-ase-1 degradation of GnRH, compared to GnRH [1]: 0.2 | Ki ([1]; Example III): 200 nM

Compound: CCNC(=O)[C@@H]1CCCN1C(=O)[C@H](Cc1ccc(O)cc1)NC(=O)[C@H](Cc1c[nH]c2ccccc12)NC(=O)[C@@H](CCCNC(=N)N)NC(=O)[C@H](Cc1c[nH]cn1)NC(=O)[C@H](CO)NC(=O)[C@H](Cc1c[nH]c2ccccc12)NC(=O)[C@H](Cc1c[nH]cn1)NC(=O)[C@@H]1CCC(=O)N1 [D-Arg-chicken II GnRH-ethylamide, D-Arg (6)-chicken II GnRH-des-Gly (10)-ethylamide] ([pGlu]HWSH[dR]WYP-NHEt)
Ki ([1]; Example III): > 200 nM

Compound: CCNC(=O)[C@@H]1CCCN1C(=O)[C@H](CCCNC(=N)N)NC(=O)[C@H](CC(C)C)NC(=O)[C@@H](Cc1cn(Cc2ccccc2)cn1)NC(=O)[C@H](Cc1ccc(O)cc1)NC(=O)[C@H](CO)NC(=O)[C@H](Cc1c[nH]c2ccccc12)NC(=O)[C@H](Cc1cnc[nH]1)NC(=O)[C@@H]1CCC(=O)N1 [^6Im-btl-D-His-GnRH^10 ethylamide, des-Gly^10-Im-Btl-D-His^6-GnRH-ethylamide]
receptor activity/potency compared with GnRH [3]: half the potency | receptor activity/potency compared with GnRH ([3]; listed as 6Im-btl-D-His-GnRH-^10 ethylamide): half the potency | receptor activity/potency compared with GnRH ([3]; listed as Im-Btl-His(6) analog): reduced receptor potency | degradation by / competition for C-ase-1, in words [2]: resistant to degradation

Compound: CCNC(=O)[C@@H]1CCCN1C(=O)[C@H](CCCNC(=N)N)NC(=O)[C@H](CC(C)C)NC(=O)CNC(=O)[C@H](Cc1ccc(O)cc1)NC(=O)[C@H](CO)NC(=O)[C@H](Cc1c[nH]c2ccccc12)NC(=O)[C@H](Cc1c[nH]cn1)NC(=O)[C@@H]1CCC(=O)N1 [des-Gly^10-GnRH-ethylamide] ([pGlu]HWSYGLRP-NHEt)
degradation by / competition for C-ase-1, in words [2]: potent competitive inhibitors

Second part, led by results:

relative potency of inhibition of C-ase-1 degradation of GnRH, compared to GnRH [1]: 0.2
Compound: CC(C)C[C@H](NC(=O)[C@H](Cc1c[nH]c2ccccc12)NC(=O)CNC(=O)[C@H](Cc1ccc(O)cc1)NC(=O)[C@H](CO)NC(=O)[C@H](Cc1c[nH]c2ccccc12)NC(=O)[C@H](Cc1c[nH]cn1)NC(=O)[C@@H]1CCC(=O)N1)C(=O)N1CCC[C@H]1C(=O)NCC(N)=O [salmon GnRH] ([pGlu]HWSYGWLPG-NH2)

receptor activity/potency compared with GnRH [3]: twice as active
Compound: CCNC(=O)[C@@H]1CCCN1C(=O)[C@H](CCCNC(=N)N)NC(=O)[C@H](CC(C)C)NC(=O)[C@@H](Cc1c[nH]c2ccccc12)NC(=O)[C@H](Cc1ccc(O)cc1)NC(=O)[C@H](CO)NC(=O)[C@H](Cc1c[nH]c2ccccc12)NC(=O)[C@H](Cc1c[nH]cn1)NC(=O)[C@@H]1CCC(=O)N1 [^6D-Trp-GnRH-^10 ethylamide]

degradation by / competition for C-ase-1, in words [2]: potent competitive inhibitors
Compound: CCNC(=O)[C@@H]1CCCN1C(=O)[C@H](CCCNC(=N)N)NC(=O)[C@H](CC(C)C)NC(=O)[C@@H](CC(C)C)NC(=O)[C@H](Cc1ccc(O)cc1)NC(=O)[C@H](CO)NC(=O)[C@H](Cc1c[nH]c2ccccc12)NC(=O)[C@H](Cc1c[nH]cn1)NC(=O)[C@@H]1CCC(=O)N1 [MAMMALIAN D-LEU (6), EA (10), des-Gly^10, D-Leu^6-GnRH-ethylamide]

relative potency of inhibition of C-ase-1 degradation of GnRH, compared to GnRH [1]: 1.5 | potency as competitor for GnRH degradation by C-ase-1 compared with GnRH ([1]; Example VII): as or even more potent than GnRH
Compound: ^9OH-Pro-GnRH

degradation by / competition for C-ase-1, in words [2]: degraded with reduced activity | relative potency of inhibition of C-ase-1 degradation of GnRH, compared to GnRH [1]: 0.6 | potency as competitor compared with salmon or chicken II GnRHs ([1]; Example VII): two-fold more potent | potency as competitor for GnRH degradation by C-ase-1 compared with GnRH ([1]; Example VII): three-fold less potent
Compound: CC(=O)N[C@H](Cc1ccc2ccccc2c1)C(=O)N[C@H](Cc1ccc(Cl)cc1)C(=O)N[C@H](Cc1cccnc1)C(=O)N[C@@H](CO)C(=O)N[C@@H](CCCCNC(=O)c1cccnc1)C(=O)N[C@H](CCCCNC(=O)c1cccnc1)C(=O)N[C@@H](CC(C)C)C(=O)N[C@@H](CCCCNC(C)C)C(=O)N1CCC[C@H]1C(=O)N[C@H](C)C(N)=O [Antide] (Ac-[d2Nal][dPhe(4-Cl)][d3Pal]SK(Nicotinoyl)[dK](Nicotinoyl)L[Lys(iPr)]P[dA]-NH2; N-terminus and C-terminus assumed)

receptor activity/potency compared with GnRH [3]: 33 fold
Compound: CCNC(=O)[C@@H]1CCCN1C(=O)[C@H](Cc1ccc(O)cc1)NC(=O)[C@H](Cc1c[nH]c2ccccc12)NC(=O)CNC(=O)[C@H](Cc1c[nH]cn1)NC(=O)[C@H](CO)NC(=O)[C@H](Cc1c[nH]c2ccccc12)NC(=O)[C@H](Cc1c[nH]cn1)NC(=O)[C@@H]1CCC(=O)N1 [chicken II GnRH ethylamide, chicken II GnRH-^10 ethylamide] ([pGlu]HWSHGWYP-NHEt)
stability in whole placental homogenates [5]: more stable than the mammalian GnRH analogs

relative potency of inhibition of C-ase-1 degradation of GnRH, compared to GnRH [1]: 1.5 | potency as competitor for GnRH degradation by C-ase-1 compared with GnRH ([1]; Example VII): as or even more potent than GnRH
Compound: CC(C)C[C@H](NC(=O)[C@H](CO)NC(=O)[C@H](Cc1ccc(O)cc1)NC(=O)[C@H](Cc1c[nH]cn1)NC(=O)[C@@H]1CCC(=O)N1)C(=O)N[C@@H](CCC(=O)O)C(=O)N[C@@H](Cc1c[nH]c2ccccc12)C(=O)N[C@@H](CCCCN)C(=O)N1CCC[C@H]1C(=O)NCC(N)=O [lamprey GnRH] ([pGlu]HYSLEWKPG-NH2)
